Results: the supplement of paper PMC3493320

System: NCI-H295R
Experiment: IC50 (antiproliferative, ATP content)
Settings: 48 h
How it was run: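 Adrenocortical carcinoma cells in 1536-well plates (1500 per well, serum-free DMEM plus ITS, overnight culture) were exposed for 48 h at 37 °C, 5% CO2 to pin-transferred compounds at 8 final concentrations ranging 0.6 nM to 46 µM. ATP content was then read as CellTiter-Glo luminescence and normalised to vehicle and positive-control wells. The IC50 came from logistic curve fits, and any compound lacking a concentration response was recorded as above the top dose.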

| IC50 [µM] | Structure (SMILES) |
| --- | --- |
| > 46 | COc1ccccc1OCC(O)CN1CCN(CC(=O)Nc2c(C)cccc2C)CC1 (stereo not given) |
| > 46 | CO/N=C(\C(=O)N[C@@H]1C(=O)N2C(C(=O)O)=C(CSc3nnnn3C)CS[C@H]12)c1csc(N)n1.CO/N=C(\C(=O)N[C@@H]1C(=O)N2C(C(=O)O)=C(CSc3nnnn3C)CS[C@H]12)c1csc(N)n1.Cl |
| > 46 | CN(C)CCCN1c2ccccc2Sc2ccccc21.Cl |
| > 46 | CC(=O)c1ccc(S(=O)(=O)NC(=O)NC2CCCCC2)cc1 |
| > 46 | O=C(OCc1ccccc1)c1ccccc1 |
| > 46 | CC/C(=C(/CC)c1ccc(OP(=O)(O)O)cc1)c1ccc(OP(=O)(O)O)cc1 |
| > 46 | CC(C)(C)NCC(O)CSc1nc(-c2ccc(C(N)=O)s2)cs1.Cl (stereo not given) |
| > 46 | COc1nc(N)nc2c1ncn2[C@@H]1O[C@H](CO)[C@@H](O)[C@@H]1O |
| > 46 | CNNCc1ccc(C(=O)NC(C)C)cc1.Cl |
| > 46 | O=C3N1/C(=C(/C)CS[C@@H]1[C@@H]3NC(=O)[C@H](N)c2ccccc2)C(O)=O |
| > 46 | CC(C)(C)NCC(O)c1ccc(O)c(CO)n1.Cl (stereo not given) |
| > 46 | CCCCCCc1ccc(O)cc1O |
| > 46 | CC(=O)[C@H]2CC[C@H]3[C@@H]4\C=C/C1=C/C(=O)CC[C@@]1(C)[C@@H]4CC[C@]23C |
| > 46 | Cc1cc2cc3c(C)cc(=O)oc3c(C)c2o1 |
| > 46 | CN1C(C(=O)Nc2ccccn2)=C(O)c2sccc2S1(=O)=O |
| > 46 | O=C1N=C2SCCN2C(=O)C1Cc1ccc(Cl)cc1 (stereo not given) |
| > 46 | COc1cc2c(cc1OC)C(=O)C(CC1CCN(Cc3ccccc3)CC1)C2.Cl (stereo not given) |
| > 46 | COC1[C@@H](O[C@@H]2O[C@H](C)[C@@H](O[C@H]3C[C@@](C)(O)[C@H](OC(=O)CC(C)C)[C@H](C)O3)[C@H](N(C)C)[C@H]2O)[C@@H](CC=O)C[C@@H](C)[C@@H](O)/C=C/C=C/C[C@@H](C)OC(=O)C[C@H]1OC(C)=O (stereo not given in full) |
| > 46 | CN1CCCN=C1COC(=O)C(O)(c1ccccc1)C1CCCCC1.Cl (stereo not given) |
| > 46 | CN(C)C=Nc1c(I)cc(I)c(CCC(=O)[O-])c1I.[Na+] |
| > 46 | CCCCC/C=C\C/C=C\CCCCCCCC(=O)O |
| > 46 | Cl.NCCNC(=O)c1ccc(Cl)cn1 |
| > 46 | NC(=O)c1cn(Cc2c(F)cccc2F)nn1 |
| > 46 | CCn1cc(C(=O)O)c(=O)c2cc(F)c(N3CCNC(C)C3)c(F)c21.Cl (stereo not given) |
| > 46 | Cc1cccc(C)c1NC(=O)CN1CCCC1 |

| IC50 [µM] | Structure (SMILES) |
| --- | --- |
| > 46 | C=CCCCCCCCCC(=O)O |
| > 46 | CS(=O)(=O)c1ccc(C2=C(c3ccccc3)C(=O)OC2)cc1 |
| > 46 | Cc1cc(NC(=O)C2=C(O)c3ccccc3S(=O)(=O)N2C)no1 |
| > 46 | CC(=O)Oc1cc(C(C)C)c(OCCN(C)C)cc1C.Cl |
| > 46 | CC1=C(CC(=O)O)c2cc(F)ccc2/C1=C\c1ccc(S(C)=O)cc1 (stereo not given) |
| > 46 | CN(C)CCN(Cc1cccs1)c1ccccn1.Cl |
| > 46 | O=C1c2ccccc2C(=O)c2c1ccc(O)c2O |
| > 46 | C[C@](N)(Cc1ccc(O)cc1)C(=O)O |
| > 46 | Nc1ncnc(Nc2ccccc2)n1 |
| > 46 | C/C(=C\C(=O)OCCCCCCCCC(=O)O)C[C@@H]1OC[C@H](C[C@@H]2O[C@H]2[C@@H](C)[C@H](C)O)[C@@H](O)[C@H]1O |
| > 46 | CC(C(=O)O)c1ccc(C(=O)c2cccs2)cc1 (stereo not given) |
| > 46 | CC(=O)Oc1ccc(C2(c3ccc(OC(C)=O)cc3)C(=O)Nc3ccccc32)cc1 |
| > 46 | Cc1c(C)n(Cc2ccccc2)c2ccc(C(=O)OCCN(C)C)cc12 |
| > 46 | O=C(O)CCn1c2c(c3ccccc31)C[C@H](NS(=O)(=O)c1ccc(F)cc1)CC2 |
| > 46 | CN1C(=O)C(=NNC(N)=S)c2ccccc21 |
| > 46 | O=C(O)c1cccnc1 |
| > 46 | NS(=O)(=O)c1cc(Cl)c(Cl)c(S(N)(=O)=O)c1 |
| > 46 | CO[C@@]1(NC(=O)CSCC#N)C(=O)N2C(C(=O)[O-])=C(CSc3nnnn3C)CS[C@@H]21.[Na+] |
| > 46 | CC(=O)[O][Al]([OH])[O]C(C)=O |
| > 46 | c1ccc2c(c1)Sc1ccccc1N2CCN1CCCC1 |
| > 46 | O.O.O.O.O=C1[O][Mg]2([O]C(=O)c3ccccc3[O]2)[O]c2ccccc21 |
| > 46 | CCCn1cnc2c1c(=O)n(CCCCC(C)=O)c(=O)n2C |
| > 46 | CCOc1ccc(NC(=S)Nc2ccc(OCC)cc2)cc1 |
| > 46 | O=C(O)CCC(=O)Nc1ccc(S(=O)(=O)Nc2nccs2)cc1 |
| > 46 | CSc1ccc(C(=O)c2[nH]c(=O)[nH]c2C)cc1 |

| IC50 [µM] | Structure (SMILES) |
| --- | --- |
| > 46 | Nc1ccc(S(=O)(=O)c2ccc(N)cc2)cc1 |
| > 46 | Cc1nc2ccc(CN(C)c3ccc(C(=O)N[C@@H](CCC(=O)O)C(=O)O)s3)cc2c(=O)[nH]1 |
| > 46 | Cc1ccc(S(=O)(=O)[O-])cc1C.[Na+] |
| > 46 | CC1(C)O[C@@H]2C[C@H]3[C@@H]4C[C@H](F)C5=CC(=O)CC[C@]5(C)[C@H]4[C@@H](O)C[C@]3(C)[C@]2(C(=O)CO)O1 |
| > 46 | CO[C@H]1C=CO[C@@]2(C)Oc3c(C)c(O)c4c(c3C2=O)C2=NC3(CCN(CC(C)C)CC3)NC2=C(NC(=O)/C(C)=C\C=C\[C@H](C)[C@H](O)[C@@H](C)[C@@H](O)[C@@H](C)[C@H](OC(C)=O)[C@@H]1C)C4=O |
| > 46 | CCCCC(C)(O)C/C=C/[C@H]1[C@H](O)CC(=O)[C@@H]1CCCCCCC(=O)OC (stereo not given in full) |
| > 46 | Cc1cc(CC(=O)O)c(C)n1-c1ccc(Cl)cc1 |
| > 46 | COc1cc(NS(=O)(=O)c2ccc(N)cc2)nc(OC)n1 |
| > 46 | Cc1ccc(C(C)C)c(O)c1 |
| > 46 | c1ccc(-c2nc[nH]c2-c2ccccc2)cc1 |
| > 46 | [Na+].[Na+].[O-]C(=O)c4ccccc4C=2c3cc(Br)c([O-])c(Br)c3OC=1C=2\C=C(\Br)C(=O)C=1Br |
| > 46 | O=C1c2ccccc2S(=O)(=O)N1CCCCN1CCN(c2ncccn2)CC1 |
| > 46 | CN(C(=O)CCCOc1ccc2[nH]c(=O)ccc2c1)C1CCCCC1 |
| > 46 | CCCCCCCCCCCCCCCCOP(=O)([O-])OCC[N+](C)(C)C |
| > 46 | CN1CCN(C(c2ccccc2)c2ccccc2)CC1.Cl.Cl |
| > 46 | N#CCC(=O)NN |
| > 46 | O=[C@@](OCC)[C@@H](N[C@@H](C)C(N2C(N(C)C[C@H]2[C@](O)=O)=O)=O)CCC1=CC=CC=C1.Cl |
| > 46 | CC(COc1ccccc1)NC(C)C(O)c1ccc(O)cc1.Cl (stereo not given) |
| > 46 | Cc1c(OCC(F)(F)F)ccnc1CS(=O)c1nc2ccccc2[nH]1 (stereo not given) |
| > 46 | NC(=O)c1ncn([C@@H]2O[C@H](CO)[C@@H](O)[C@H]2O)n1 |
| > 46 | CNC(=O)C(N)CSC(C)C1=C(C)c2cc3[n-]c(cc4nc(cc5[n-]c(cc1n2)c(C)c5CCC(=O)O)C(CCC(=O)O)=C4C)c(C)c3C(C)SCC(N)C(=O)NC.[Fe+2] (stereo not given) |
| > 46 | Nc1nc(=O)[nH]cc1F |
| > 46 | CCCCCCCCCCCCCCCC[N+](C)(C)CCN(Cc1ccc(OC)cc1)c1ncccn1.[Br-] |
| > 46 | Cc1ccc(O)c([C@H](CCN(C(C)C)C(C)C)c2ccccc2)c1 |
| > 46 | OCC=Cc1ccccc1 |

| Structure (SMILES) | IC50 [µM] |
| --- | --- |
| O[C@H]1[C@@H]([C@H](O)CO)O[C@H]2[C@@H]1O[C@@H]([C@@](Cl)(Cl)Cl)O2 | > 46 |
| [C@@]2\1(\C(=C/C(/C=C/1)=O)CC[C@@H]4[C@@H]2CC[C@@]3([C@](O)(C)CC[C@H]34)C)C | > 46 |
| OC1=C(C=C(/C=C(C#N)/C#N)C=C1)O | > 46 |
| Cc1ncc(CNC(=O)N(CCCl)N=O)c(N)n1 | > 46 |
| CN[C@@H]1[C@@H](O)[C@@H](O[C@@H]2[C@@H](O)[C@H](O[C@H]3O[C@H](CN)[C@@H](O)[C@H](O)[C@H]3O)[C@@H](N)C[C@H]2NC(=O)C(O)CN)OC[C@]1(C)O.O=S(=O)(O)O (stereo not given in full) | > 46 |
| O=C1NCN(c2ccccc2)C12CCN(CCCOc1ccc(F)cc1)CC2 | > 46 |
| COc1cc2nc(N3CCN(C(=O)C4COc5ccccc5O4)CC3)nc(N)c2cc1OC.CS(=O)(=O)O (stereo not given) | > 46 |
| C[N+]12CCC(CC1)C(OC(=O)C(O)(c1ccccc1)c1ccccc1)C2.[Br-] (stereo not given) | > 46 |
| C[C@]43CCC(=O)\C=C4\CC[C@@H]1[C@@H]3CC[C@]2(C)[C@H](O)CC[C@@H]12 | > 46 |
| CCCC1CCCCN1 (stereo not given) | > 46 |
| Br.CN1[C@@H]2C[C@@H](OC(=O)[C@H](CO)c3ccccc3)C[C@H]1[C@@H]1O[C@@H]12.O.O.O | > 46 |
| Cl.NC1C[C@H]1c1ccccc1 (stereo not given in full) | > 46 |
| CN1C(=O)COc2c(C(=O)NC3CN4CCC3CC4)cc(Cl)cc21 (stereo not given) | > 46 |
| CC(C)N(CCC(C(N)=O)(c1ccccc1)c1ccccn1)C(C)C (stereo not given) | > 46 |
| O=C(CCCN1CCC2(CC1)C(=O)NCN2c1ccccc1)c1ccc(F)cc1 | > 46 |
| BrC2=CC=C(C=C2)[C@@H]([C@@]1=CC=CC=N1)CCN(C)C.O=C(O)/C=C\C(O)=O | > 46 |
| CC1NCCOC1c1ccccc1.Cl (stereo not given) | > 46 |
| CCOC(=O)c1cccc(N)c1.CS(=O)(=O)O | > 46 |
| O=C(O)COc1ccccc1 | > 46 |
| c1ccc2sc(SNC3CCCCC3)nc2c1 | > 46 |
| S=C=S | > 46 |
| COc1ccc(C(=O)c2c(C)n(CCN3CCOCC3)c3ccccc23)cc1 | > 46 |
| Nc1nc(N)nc(NC2CC2)n1 | > 46 |
| CO[C@]12C[C@@H](COC(=O)c3cncc(Br)c3)CN(C)[C@@H]1Cc1cn(C)c3cccc2c13 | > 46 |
| COc1ccc2c3c1O[C@H]1[C@@H](O)C=C[C@H]4[C@@H](C2)NCC[C@@]341 | > 46 |
